Test results as given in patent publication US12240840B2, “Amide-substituted heterocyclic compounds for the treatment of conditions related to the modulation of IL-12, IL-23 and/or IFN-alpha” (BRISTOL-MYERS SQUIBB COMPANY, priority 2018, dated 2025).

tested on: IFNα-induced pSTAT5 (pY694) in CD3 positive cells of human whole blood; assay: IFNα-Induced STAT Phosphorylation in Human Whole Blood; type: cell-based; conditions: 1 h compound incubation, 1000 U/mL recombinant human IFNα A/D for 15 min, pSTAT5 in CD3 positive population, read-out: Human WB IFNα-Induced Stat Phosph. (IC50)
Procedure, shortened: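 Read-out is median fluorescence intensity of pSTAT5 (pY694) in the CD3-positive gate, by flow cytometry after fix/lyse and permeabilization. Before that, whole human blood anticoagulated with EDTA or ACD-A received compound for an hour and 1000 U/mL IFNα A/D for 15 min.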

Structure (SMILES)	IC50
[2H]C([2H])([2H])NC(=O)c1cnc(NC(=O)C2CC2)cc1Nc1cccc(-c2ccn(CCNC(=O)COC)n2)c1OC [Example 473]	> 10000 nM

same assay, conditions: Homo sapiens, 1 h compound incubation, 1000 U/mL recombinant human IFNα A/D for 15 min, pSTAT5 in CD3 positive population, read-out: Human WB IFNα-Induced Stat Phosph. (IC50)

Structure (SMILES)	IC50
[2H]C([2H])([2H])NC(=O)c1cnc(Nc2cc(C(C)(C)O)ccn2)cc1Nc1cc(F)cc(-c2cnn(C)n2)c1OC [Example 454]	190 nM
[2H]C([2H])([2H])NC(=O)c1nnc(NC(=O)C2CC2)cc1Nc1cccc(-c2cc(C(=O)N3CCN(C(C)=O)CC3)n(C)n2)c1OC [Example 493]	40 nM
[2H]C([2H])([2H])NC(=O)c1nnc(NC(=O)C2CC2)cc1Nc1cc(F)cc(-c2cc(C(=O)N3CCN(CCO)CC3)n(C)n2)c1OC [Example 484]	100 nM
[2H]C([2H])([2H])NC(=O)c1nnc(NC(=O)C2CC2)cc1Nc1cccc(-c2nc(CN3CCN(C(C)=O)CC3=O)no2)c1OC [Example 140]	330 nM
[2H]C([2H])([2H])NC(=O)c1cnc(NC(=O)C2CC2)cc1Nc1cccc(-c2nc(C3(N)CC3)no2)c1OC [Example 212]	320 nM
[2H]C([2H])([2H])NC(=O)c1nnc(NC(=O)C2CC2)cc1Nc1cccc(-c2noc(CCS(C)(=O)=O)n2)c1OC [Example 78]	70 nM
[2H]C([2H])([2H])NC(=O)c1nnc(NC(=O)C2CC2)cc1Nc1cccc(-c2nc(CNC(C)=O)no2)c1OC [Example 145]	270 nM
[2H]C([2H])([2H])NC(=O)c1nnc(NC(=O)C2CC2)cc1Nc1cccc(-c2cc(C(=O)NCCOC)n(C)n2)c1OC [Example 458]	1210 nM
[2H]C([2H])([2H])NC(=O)c1nnc(NC(=O)C2CC2)cc1Nc1cccc(-c2ccn(CCN(C[C@H](O)CC)C[C@@H](O)CC)n2)c1OC [Example 475]	2320 nM
[2H]C([2H])([2H])NC(=O)c1cnc(NC(=O)C2CC2)cc1Nc1cccc(-c2noc(CO)n2)c1OC [Example 98]	23 nM
CCS(=O)(=O)NCc1nc(-c2cccc(Nc3cc(NC(=O)C4CC4)nnc3C(N)=O)c2OC)no1 [Example 48]	25 nM
[2H]C([2H])([2H])NC(=O)c1nnc(NC(=O)C2CC2)cc1Nc1cccc(-c2ncc(C(=O)NCCC(C)C)s2)c1OC [Example 305]	220 nM
[2H]C([2H])([2H])NC(=O)c1nnc(NC(=O)C2CC2)cc1Nc1cccc(-c2ncc(C(C)O)s2)c1OC (stereo not drawn) [Example 258]	130 nM
[2H]C([2H])([2H])NC(=O)c1nnc(NC(=O)C2CC2)cc1Nc1cccc(-c2cn(CCN3CCOCC3)nn2)c1OC [Example 422, 6-(cyclopropanecarboxamido)-4-((2-methoxy-3-(1-(2-morpholinoethyl)-1H-1,2,3-triazol-4-yl)phenyl)amino)-N-(methyl-d3)pyridazine-3-carboxamide]	590 nM
[2H]C([2H])([2H])NC(=O)c1nnc(NC(=O)C2CC2)cc1Nc1cccc(-c2cc(C(=O)N(C)CC(O)CO)n(C)n2)c1OC (stereo not drawn) [Example 520]	770 nM
COCCN1CCN(Cc2cnc(-c3cccc(Nc4cc(NC(=O)C5CC5)nnc4C(N)=O)c3OC)s2)CC1 [Example 399]	180 nM
[2H]C([2H])([2H])NC(=O)c1nnc(NC(=O)C2CC2)cc1Nc1cccc(-c2nc([C@H](CO)NC(=O)COC)no2)c1OC [Example 202]	1800 nM
[2H]C([2H])([2H])NC(=O)c1nnc(NC(=O)C2CC2)cc1Nc1cccc(-c2noc(CN3CCC(O)CC3)n2)c1OC [Example 83]	110 nM
[2H]C([2H])([2H])NC(=O)c1cnc(NC(=O)C2CC2)cc1Nc1cccc(-c2ncc(C(C)(C)O)s2)c1OC [Example 270]	100 nM
[2H]C([2H])([2H])NC(=O)c1nnc(NC(=O)C2CC2)cc1Nc1cccc(-c2cnn(CC(=O)NCCO)n2)c1OC [Example 429]	190 nM

Next, values leading:

IC50	Structure (SMILES)
230 nM	[2H]C([2H])([2H])NC(=O)c1nnc(NC(=O)C2CC2)cc1Nc1cccc(-c2ncc(CO)s2)c1OC [Example 257]
110 nM	[2H]C([2H])([2H])NC(=O)c1nnc(NC(=O)C2CC2)cc1Nc1cccc(-c2nc(CN(C)S(C)(=O)=O)no2)c1OC [Example 169]
> 10000 nM	[2H]C([2H])([2H])NC(=O)c1nnc(Nc2ccc(OC)nn2)cc1Nc1cccc(-c2ncc(CNC(=O)OC(C)(C)C)s2)c1OC [Example 388]
330 nM	[2H]C([2H])([2H])NC(=O)c1nnc(NC(=O)C2CC2)cc1Nc1cccc(-c2ncc(C(=O)NCC#N)s2)c1OC [Example 300]
140 nM	[2H]C([2H])([2H])NC(=O)c1nnc(NC(=O)C2CC2)cc1Nc1cccc(-c2cnn(CCN)n2)c1OC [Example 448]
110 nM	COc1c(Nc2cc(NC(=O)C3CC3)nnc2C(N)=O)cccc1-c1ncc(C(=O)NC(C)C)s1 [Example 404]
2420 nM	[2H]C([2H])([2H])NC(=O)c1nnc(NC(=O)C2CC2)cc1Nc1cccc(-c2nc(CN(C)C(=O)OC(C)(C)C)no2)c1OC [Example 167]
880 nM	[2H]C([2H])([2H])NC(=O)c1nnc(NC(=O)C2CC2)cc1Nc1cccc(-c2nc(C(OCC)OCC)no2)c1OC [Example 224]
90 nM	COc1c(Nc2cc(NC(=O)C3CC3)nnc2C(N)=O)cccc1-c1noc([C@@H](C)N(C)S(C)(=O)=O)n1 [Example 52]
160 nM	[2H]C([2H])([2H])NC(=O)c1nnc(NC(=O)C2CC2)cc1Nc1cccc(-c2noc(C(CC)C(=O)N3CCOCC3)n2)c1OC (stereo not drawn) [Example 45]
90 nM	COc1c(Nc2cc(NC(=O)C3CC3)nnc2C(N)=O)cccc1-c1ncc(CC(=O)N(C)C)s1 [Example 243]
> 10000 nM	[2H]C([2H])([2H])NC(=O)c1nnc(NC(=O)C2CC2)cc1Nc1cccc(-c2ncc(C(=O)NC(C)(C)C)s2)c1OC [Example 309]
80 nM	[2H]C([2H])([2H])NC(=O)c1nnc(NC(=O)C2CC2)cc1Nc1cccc(-c2nc(C)c(C(=O)N3CCOCC3)s2)c1OC [Example 356]
21 nM	[2H]C([2H])([2H])NC(=O)c1cnc(NC(=O)C2CC2)cc1Nc1cccc(-c2noc(CN3CCN(S(C)(=O)=O)CC3)n2)c1OC [Example 95]
3270 nM	[2H]C([2H])([2H])NC(=O)c1nnc(NC(=O)C2CC2)cc1Nc1cccc(-c2ncc(CC(=O)NCCCN(C)C)s2)c1OC [Example 252]
200 nM	[2H]C([2H])([2H])NC(=O)c1nnc(NC(=O)C2CC2)cc1Nc1cccc(-c2nc([C@@H](CO)NC(C)=O)no2)c1OC [Example 220]
170 nM	[2H]C([2H])([2H])NC(=O)c1nnc(NC(=O)C2CC2)cc1Nc1cc(F)cc(-c2cc(C(=O)N3CCC(N4CCCC4)CC3)n(C)n2)c1OC [Example 516]
70 nM	[2H]C([2H])([2H])NC(=O)c1nnc(NC(=O)C2CC2)cc1Nc1cccc(-c2cc(C(=O)N3CCN(C)CC3)n(C)n2)c1OC [Example 480]
560 nM	[2H]C([2H])([2H])NC(=O)c1nnc(NC(=O)C2CC2)cc1Nc1cccc(-c2cc(C(=O)N3CCS(=O)(=O)CC3)n(C)n2)c1OC [Example 455, 6-(cyclopropanecarboxamido)-4-((3-(5-(1,1-dioxidothiomorpholine-4-carbonyl)-1-methyl-1H-pyrazol-3-yl)-2-methoxyphenyl)amino)-N-(methyl-d3)pyridazine-3-carboxamide]
210 nM	[2H]C([2H])([2H])NC(=O)c1nnc(NC(=O)C2CC2)cc1Nc1cccc(-c2noc(C3(C(=O)N4CCOCC4)CC3)n2)c1OC [Example 28]
4440 nM	[2H]C([2H])([2H])NC(=O)c1cnc(NC(=O)C2CC2)cc1Nc1cccc(-c2nc(C3(NC(=O)OC(C)(C)C)CC3)no2)c1OC [Example 213]
